Source: patent US20250205342A1, “IRAK DEGRADERS AND USES THEREOF” (Kymera Therapeutics, Inc., priority 2022, published 2025)

Legend:
IRAK4 [1] = target: T1, IRAK4 (Homo sapiens, UniProt Q9NWZ3); experiment: hPBMC IRAK4 degradation flow assay (monocytes); type: cell-based; set-up: endogenous in cells; host or cells: human PBMCs (monocytes, CD14 positive gate); conditions: CD14 positive monocytes, 20 h, read-out: hPBMC monocyte DC50 at 20 h
T1 sequence (Q9NWZ3 1-460): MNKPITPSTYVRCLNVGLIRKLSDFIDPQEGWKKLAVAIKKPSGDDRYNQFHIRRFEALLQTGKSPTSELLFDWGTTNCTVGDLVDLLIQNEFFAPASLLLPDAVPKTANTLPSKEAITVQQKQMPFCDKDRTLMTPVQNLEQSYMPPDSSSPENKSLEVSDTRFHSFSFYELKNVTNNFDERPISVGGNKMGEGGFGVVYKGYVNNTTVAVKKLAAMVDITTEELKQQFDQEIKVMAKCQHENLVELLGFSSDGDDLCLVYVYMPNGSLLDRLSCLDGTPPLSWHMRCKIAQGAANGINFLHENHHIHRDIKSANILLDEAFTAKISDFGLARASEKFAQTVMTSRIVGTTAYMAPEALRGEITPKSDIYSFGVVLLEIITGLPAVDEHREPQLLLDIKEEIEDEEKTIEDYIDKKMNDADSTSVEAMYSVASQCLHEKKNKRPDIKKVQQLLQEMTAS
How it was run: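 Thawed human PBMCs treated 20 h (or 4 h) at 37° C. with 10-point 5-fold compound dilutions, 0.1% DMSO, then fixed, methanol-permeabilized and stained for IRAK4 and lineage markers by flow, with monocytes gated CD14+. IRAK4 MFI normalized to DMSO and 10 µM control; DC50 and max degradation from 4-parameter logistic fit.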

IRAK4 [2] = target: T1, IRAK4; experiment: IRAK4 degradation in OCI-LY10 (MSD, Meso Scale Discovery); type: cell-based; set-up: endogenous in cells; host or cells: OCI-LY10; conditions: OCI-LY10 cells, 24 h
How it was run: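 OCI-LY10 cells (300,000/well) were treated with an 8-point 1:3 series (top 1 to 10 μM) for 4 to 24 h at 37 °C. IRAK4 in RIPA lysates was quantified by MSD sandwich immunoassay with two anti-IRAK4 antibodies. DC50 was fitted with a three-parameter logistic equation.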

| DC50 (IRAK4 [1]) [µM] | DC50 (IRAK4 [2]) [µM] | SMILES |
| --- | --- | --- |
| > 10 | > 10 | COc1cc(-c2ccc(F)c(CCCCCCCCCNC[C@H]3CC[C@H](n4cc(NC(=O)c5cnn6ccc(N7C[C@H]8C[C@@H]7CO8)nc56)c(C(F)F)n4)CC3)c2)ccc1C(=O)Nc1ccc(=O)n(CC(=O)O)c1 [Compound I-65] |
| > 10 | > 10 | COc1cc2nn([C@H]3CC[C@H](CNCCOc4cncc(N5CCC[C@H](C(=O)Nc6ccc(=O)n(CC(=O)O)c6)C5)c4)CC3)cc2cc1NC(=O)c1cccc(C(F)(F)F)n1 [Compound I-29] |
| > 10 | > 10 | CC(C)(O)c1cc2nn([C@H]3CC[C@H](CNCCCCCCn4ccc5c(C(=O)Nc6ccc(=O)n(CC(=O)O)c6)cccc54)CC3)cc2cc1NC(=O)c1cccc(C(F)(F)F)n1 [Compound I-58] |
| > 10 | > 10 | O=C(O)Cn1cc(NC(=O)[C@H]2CCCN(c3cncc(NCCOCCOCCOCCOCCNC[C@H]4CC[C@H](n5cc(NC(=O)c6cnn7ccc(N8C[C@H]9C[C@@H]8CO9)nc67)c(C(F)F)n5)CC4)c3)C2)ccc1=O [Compound I-4] |
| 1 to 10 | 1 to 10 | COC(=O)Cn1cc(NC(=O)c2cccc(-c3cncc4cc(CCCCCCNC[C@H]5CC[C@H](n6cc7cc(NC(=O)c8cccc(C(F)(F)F)n8)c(C(C)(C)O)cc7n6)CC5)ccc34)c2)ccc1=O [Compound I-57] |
| 1 to 10 | > 10 | CCOC(=O)Cn1cc(NC(=O)c2cccc3c2ccn3CCCCCCNC[C@H]2CC[C@H](n3cc(NC(=O)c4cnn5ccc(N6C[C@H]7C[C@@H]6CO7)nc45)c(C(F)F)n3)CC2)ccc1=O [Compound I-61] |
| > 10 | > 10 | CCOC(=O)Cn1cc(NC(=O)c2cccc3c2ccn3CCCCCCCCCNC[C@H]2CC[C@H](n3cc(NC(=O)c4cnn5ccc(N6C[C@H]7C[C@@H]6CO7)nc45)c(C(F)F)n3)CC2)ccc1=O [Compound I-73] |
| > 10 | > 10 | O=C(O)Cn1cc(NC(=O)c2cccc(-c3cncc(CCCCCCCCCNC[C@H]4CC[C@H](n5cc(NC(=O)c6cnn7ccc(N8C[C@H]9C[C@@H]8CO9)nc67)c(C(F)F)n5)CC4)c3)c2)ccc1=O [Compound I-85] |
| 1 to 10 | > 10 | CC(C)(O)c1cc2nn([C@H]3CC[C@H](CNCCCCCCCCCn4ccc5c(C(=O)Nc6ccc(=O)n(CC(=O)O)c6)cccc54)CC3)cc2cc1NC(=O)c1cccc(C(F)(F)F)n1 [Compound I-68] |
| > 10 | 1 to 10 | CCOC(=O)Cn1cc(NC(=O)c2cccc(-c3cncc(CCCCCCNC[C@H]4CC[C@H](n5cc6cc(NC(=O)c7cccc(C(F)(F)F)n7)c(C(C)(C)O)cc6n5)CC4)c3)c2)ccc1=O [Compound I-97] |
| 0.1 to 1 | 0.1 to 1 | COC(=O)Cn1cc(NC(=O)c2cccc(-c3cncc(CCCCCCCCCNC[C@H]4CC[C@H](n5cc6cc(NC(=O)c7cccc(C(F)(F)F)n7)c(C(C)(C)O)cc6n5)CC4)c3)c2)ccc1=O [Compound I-49] |
| > 10 | > 10 | COc1cc2nn([C@H]3CC[C@H](CNCCOCCOCCOc4cncc(N5CCC[C@H](C(=O)Nc6ccc(=O)n(CC(=O)O)c6)C5)c4)CC3)cc2cc1NC(=O)c1cccc(C(F)(F)F)n1 [Compound I-40] |
| 1 to 10 | > 10 | O=C(O)Cn1cc(NC(=O)[C@H]2CCCN(c3cncc(CCCCNC[C@H]4CC[C@H](n5cc(NC(=O)c6cnn7ccc(N8C[C@H]9C[C@@H]8CO9)nc67)c(C(F)F)n5)CC4)c3)C2)ccc1=O [Compound I-21] |
| > 10 | > 10 | CC(C)(O)c1cc2nn([C@H]3CC[C@H](CNCCCc4cc(C(=O)Nc5ccc(=O)n(CC(=O)O)c5)cc(-c5cccnc5)c4)CC3)cc2cc1NC(=O)c1cccc(C(F)(F)F)n1 [Compound I-80] |
| > 10 | > 10 | CC(C)(O)c1cc2nn([C@H]3CC[C@H](CNCCCc4cncc(-c5cccc(C(=O)Nc6ccc(=O)n(CC(=O)O)c6)c5)c4)CC3)cc2cc1NC(=O)c1cccc(C(F)(F)F)n1 [Compound I-86] |
| > 10 | > 10 | CCOC(=O)Cn1cc(NC(=O)[C@H]2CCCN(c3cncc(NCCOCCOCCNC[C@H]4CC[C@H](n5cc(NC(=O)c6cnn7ccc(N8C[C@H]9C[C@@H]8CO9)nc67)c(C(F)F)n5)CC4)c3)C2)ccc1=O [Compound I-15] |
| > 10 | > 10 | COc1cc2nn([C@H]3CC[C@H](CN(C)CC4CCN(c5cncc(N6CCCC(C(=O)Nc7ccc(=O)n(CC(=O)O)c7)C6)c5)CC4)CC3)cc2cc1NC(=O)c1cccc(C(F)(F)F)n1 (stereo partly shown) [Compound I-19] |
| > 10 | > 10 | O=C(O)Cn1cc(NC(=O)[C@H]2CCCN(c3cncc(NCCNC[C@H]4CC[C@H](n5cc(NC(=O)c6cnn7ccc(N8C[C@H]9C[C@@H]8CO9)nc67)c(C(F)F)n5)CC4)c3)C2)ccc1=O [Compound I-8] |
| > 10 | > 10 | CC(C)(O)c1cc2nn([C@H]3CC[C@H](CNCCCCCCCCCC4=CC(c5cccnc5)CC(C(=O)Nc5ccc(=O)n(CC(=O)O)c5)=C4)CC3)cc2cc1NC(=O)c1cccc(C(F)(F)F)n1 (stereo partly shown) [Compound I-60] |
| 1 to 10 | > 10 | CCOC(=O)Cn1cc(NC(=O)[C@H]2CCCN(c3cncc(CCNC[C@H]4CC[C@H](n5cc(NC(=O)c6cnn7ccc(N8C[C@H]9C[C@@H]8CO9)nc67)c(C(F)F)n5)CC4)c3)C2)ccc1=O [Compound I-36] |
| > 10 | 1 to 10 | CCOC(=O)Cn1cc(NC(=O)c2cc(CCCCCCCCCNC[C@H]3CC[C@H](n4cc(NC(=O)c5cnn6ccc(N7C[C@H]8C[C@@H]7CO8)nc56)c(C(F)F)n4)CC3)cc(-c3cccnc3)c2)ccc1=O [Compound I-75] |
| > 10 | > 10 | O=C(O)Cn1cc(NC(=O)[C@H]2CCCN(c3cncc(C#CCOC4CCN(C[C@H]5CC[C@H](n6cc(NC(=O)c7cnn8ccc(N9C[C@H]%10C[C@@H]9CO%10)nc78)c(C(F)F)n6)CC5)CC4)c3)C2)ccc1=O [Compound I-11] |
| > 10 | > 10 | CCOC(=O)Cn1cc(NC(=O)c2cccc3c2ccn3CCCCCCNC[C@H]2CC[C@H](n3cc4cc(NC(=O)c5cccc(C(F)(F)F)n5)c(C(C)(C)O)cc4n3)CC2)ccc1=O [Compound I-71] |
| 1 to 10 | 1 to 10 | COC(=O)Cn1cc(NC(=O)c2cccc(-c3cncc4c(CCCCCCCCCNC[C@H]5CC[C@H](n6cc7cc(NC(=O)c8cccc(C(F)(F)F)n8)c(C(C)(C)O)cc7n6)CC5)cccc34)c2)ccc1=O [Compound I-54] |
| > 10 | > 10 | COc1cc(-c2ccc(CCCCCCCCCNC[C@H]3CC[C@H](n4cc(NC(=O)c5cnn6ccc(N7C[C@H]8C[C@@H]7CO8)nc56)c(C(F)F)n4)CC3)cc2)ccc1C(=O)Nc1ccc(=O)n(CC(=O)O)c1 [Compound I-62] |
| > 10 | > 10 | CC(C)(O)c1cc2nn([C@H]3CC[C@H](CNCCCCCCc4ccc5c(-c6cccc(C(=O)Nc7ccc(=O)n(CC(=O)O)c7)c6)cncc5c4)CC3)cc2cc1NC(=O)c1cccc(C(F)(F)F)n1 [Compound I-52] |
